Article PMC12377202, “Design, synthesis, and cytotoxic evaluation of quinazoline-based derivatives as VEGER-2 inhibitors: comparative study against EGFR kinase activity, induction of apoptosis, and molecular docking study” (RSC Advances, 2025)

Key:
Format in all cases: cell-based, human
MCF-7 = assay: MTT anti-proliferative assay, MCF-7; settings: Homo sapiens, MCF7
HepG-2 = assay: MTT anti-proliferative assay, HepG-2; settings: Homo sapiens, HepG2
caspase-3 = assay: Caspase-3 expression level in HepG-2 cells; settings: for Caspase-3 ± SE: HepG-2, at IC50 concentrations, control 0.460
Method: (§1) All synthesized compounds were tested at their cytotoxic concentrations in HepG-2 cells for analysis of gene expression levels of apoptotic markers caspase-3, caspase-9, TNF-α, and IL-6 proteins, and only two active compounds were tested for BAX and Bcl-2 proteins.
(§2) through Flow cytometric analysis.
(§3) Pellets were collected again and incubated with
(§4) Total RNA from vehicle-treated
(§5) (Thermo Scientific, USA).
(§6) All experiments were performed in […]

K-562 = assay: MTT anti-proliferative assay, K-562; settings: Homo sapiens, K562
caspase-9 = assay: Caspase-9 expression level in HepG-2 cells; settings: for Caspase-9 ± SE: HepG-2, at IC50 concentrations, control 11.01
Method: as §1, §2, §3, §4, §5, §6

TNF-alpha = TNF-alpha level in HepG-2 cells; settings: control 43.48
Method: as §1, §2, §3, §4, §5, §6

IL-6R = IL-6R level in HepG-2 cells
Method: as §1, §2, §3, §4, §5, §6

SMILES: O=C(Cn1cnc2cc(Cl)ccc2c1=O)Nc1ccc(Cl)cc1 [8c, 2-(7-Chloro-4-oxoquinazolin-3(4H)-yl)-N-(4-chlorophenyl)acetamide]
- viability at 0.195 µmol (MCF-7; MCF-7, 0.195 umol): 46.1%
- cytotoxicity at 0.195 µmol (MCF-7; MCF-7, 0.195 umol, read-out: Toxicity %): 53.9%
- viability at 0.391 µmol (MCF-7; MCF-7, 0.391 umol): 32.9%
- cytotoxicity at 0.391 µmol (MCF-7; MCF-7, 0.391 umol, read-out: Toxicity %): 67.1%
- viability at 0.781 µmol (MCF-7; MCF-7, 0.781 umol): 20.3%
- cytotoxicity at 0.781 µmol (MCF-7; MCF-7, 0.781 umol, read-out: Toxicity %): 79.7%
- viability at 1.563 µmol (MCF-7; MCF-7, 1.563 umol): 13.1%
- cytotoxicity at 1.563 µmol (MCF-7; MCF-7, 1.563 umol, read-out: Toxicity %): 86.9%
- viability at 3.125 µmol (MCF-7; MCF-7, 3.125 umol): 10.2%
- cytotoxicity at 3.125 µmol (MCF-7; MCF-7, 3.125 umol, read-out: Toxicity %): 89.8%
- viability at 6.25 µmol (MCF-7; MCF-7, 6.25 umol): 8.44%
- cytotoxicity at 6.25 µmol (MCF-7; MCF-7, 6.25 umol, read-out: Toxicity %): 91.6%
- viability at 12.5 µmol (MCF-7; MCF-7, 12.5 umol): 8.05%
- cytotoxicity at 12.5 µmol (MCF-7; MCF-7, 12.5 umol, read-out: Toxicity %): 92%
- viability at 25 µmol (MCF-7; MCF-7, 25 umol): 6.64%
- cytotoxicity at 25 µmol (MCF-7; MCF-7, 25 umol, read-out: Toxicity %): 93.4%
- IC50 (MCF-7; MTT, MCF-7, read-out: Cytotoxicity against cancer cells IC50 MCF-7): 188 ± 2.6 nM
- viability at 0.195 µg/mL (HepG-2; HepG-2, 0.195 ug/ml): 89.2%
- cytotoxicity at 0.195 µg/mL (HepG-2; HepG-2, 0.195 ug/ml, read-out: Toxicity %): 10.8%
- viability at 0.391 µg/mL (HepG-2; HepG-2, 0.391 ug/ml): 65.9%
- cytotoxicity at 0.391 µg/mL (HepG-2; HepG-2, 0.391 ug/ml, read-out: Toxicity %): 34.1%
- viability at 0.781 µg/mL (HepG-2; HepG-2, 0.781 ug/ml): 47.8%
- cytotoxicity at 0.781 µg/mL (HepG-2; HepG-2, 0.781 ug/ml, read-out: Toxicity %): 52.2%
- viability at 1.563 µg/mL (HepG-2; HepG-2, 1.563 ug/ml): 29.9%
- cytotoxicity at 1.563 µg/mL (HepG-2; HepG-2, 1.563 ug/ml, read-out: Toxicity %): 70.1%
- viability at 3.125 µg/mL (HepG-2; HepG-2, 3.125 ug/ml): 15.9%
- cytotoxicity at 3.125 µg/mL (HepG-2; HepG-2, 3.125 ug/ml, read-out: Toxicity %): 84.1%
- viability at 6.25 µg/mL (HepG-2; HepG-2, 6.25 ug/ml): 11%
- cytotoxicity at 6.25 µg/mL (HepG-2; HepG-2, 6.25 ug/ml, read-out: Toxicity %): 89%
- viability at 12.5 µg/mL (HepG-2; HepG-2, 12.5 ug/ml): 7.66%
- cytotoxicity at 12.5 µg/mL (HepG-2; HepG-2, 12.5 ug/ml, read-out: Toxicity %): 92.3%
- viability at 25 µg/mL (HepG-2; HepG-2, 25 ug/ml): 6.7%
- cytotoxicity at 25 µg/mL (HepG-2; HepG-2, 25 ug/ml, read-out: Toxicity %): 93.3%
- IC50 (HepG-2; MTT, HepG-2, read-out: Cytotoxicity against cancer cells IC50 HepG-2): 734.4 ± 2.3 nM
- Caspase-3 ± SE (caspase-3): 1.25 ± 0.090 ng/mL
- Caspase-3 ± SE (caspase-3; listed as R1): 1.25 ng/mL
- caspase-3 expression level, fold increase (caspase-3; HepG-2, vs control cells): 2.72 fold
- viability at 0.195 µmol (K-562; K-562, 0.195 umol): 80.8%
- cytotoxicity at 0.195 µmol (K-562; K-562, 0.195 umol, read-out: Toxicity %): 19.2%
- viability at 0.391 µmol (K-562; K-562, 0.391 umol): 60.1%
- cytotoxicity at 0.391 µmol (K-562; K-562, 0.391 umol, read-out: Toxicity %): 39.9%
- viability at 0.781 µmol (K-562; K-562, 0.781 umol): 34.4%
- cytotoxicity at 0.781 µmol (K-562; K-562, 0.781 umol, read-out: Toxicity %): 65.6%
- viability at 1.563 µmol (K-562; K-562, 1.563 umol): 19.5%
- cytotoxicity at 1.563 µmol (K-562; K-562, 1.563 umol, read-out: Toxicity %): 80.5%
- viability at 3.125 µmol (K-562; K-562, 3.125 umol): 13%
- cytotoxicity at 3.125 µmol (K-562; K-562, 3.125 umol, read-out: Toxicity %): 87%
- viability at 6.25 µmol (K-562; K-562, 6.25 umol): 9.89%
- cytotoxicity at 6.25 µmol (K-562; K-562, 6.25 umol, read-out: Toxicity %): 90.1%
- viability at 12.5 µmol (K-562; K-562, 12.5 umol): 8.25%
- cytotoxicity at 12.5 µmol (K-562; K-562, 12.5 umol, read-out: Toxicity %): 91.7%
- viability at 25 µmol (K-562; K-562, 25 umol): 6.53%
- cytotoxicity at 25 µmol (K-562; K-562, 25 umol, read-out: Toxicity %): 93.5%
- IC50 (K-562; MTT, K-562, read-out: Cytotoxicity against cancer cells IC50 K-562): 544.4 ± 3.2 nM
- Caspase-9 ± SE (caspase-9): 26.98 ± 1.30 ng/L
- Caspase-9 ± SE (caspase-9; listed as R1): 26.98 ng/L
- caspase-9 expression level, fold increase (caspase-9; HepG-2, vs control cells): 2.5 fold
- TNF-alpha ±SE (TNF-alpha; HepG-2, at IC50 concentrations): 9.13 ± 0.37 ng/L
- TNF-alpha ±SE (TNF-alpha; raw data, HepG2): 10.2 ng/L
- IL-6R ± SE (IL-6R; HepG-2, at IC50 concentrations, control 44.10): 14.73 ± 1.06 ng/L
- IL-6R protein level (IL-6R; HepG-2, control 44.10%): 14.73 ng/L
- IL-6 ±SE (IL-6R; raw data, HepG2, control 44.10): 16.64 ng/L
